According to patent US8501946B2 (Glaxo Group Limited, priority 2009, dated 2013):

Experiments:
[1] = target: T1, human recombinant P2X7 receptors (Homo sapiens, UniProt Q99572); assay: Ethidium Accumulation Assay 1 (HEK293 cells, ATP-induced ethidium uptake); assay type: cell-based; conditions: HEK293 cells expressing human P2X7; 1 mM ATP; sometimes mean of more than one measurement; read-out: Assay 1 (antagonist pIC50 for blocking ATP responses) (converted)
T1 construct: expressed in transfected cells
T1 sequence (Q99572 1-595): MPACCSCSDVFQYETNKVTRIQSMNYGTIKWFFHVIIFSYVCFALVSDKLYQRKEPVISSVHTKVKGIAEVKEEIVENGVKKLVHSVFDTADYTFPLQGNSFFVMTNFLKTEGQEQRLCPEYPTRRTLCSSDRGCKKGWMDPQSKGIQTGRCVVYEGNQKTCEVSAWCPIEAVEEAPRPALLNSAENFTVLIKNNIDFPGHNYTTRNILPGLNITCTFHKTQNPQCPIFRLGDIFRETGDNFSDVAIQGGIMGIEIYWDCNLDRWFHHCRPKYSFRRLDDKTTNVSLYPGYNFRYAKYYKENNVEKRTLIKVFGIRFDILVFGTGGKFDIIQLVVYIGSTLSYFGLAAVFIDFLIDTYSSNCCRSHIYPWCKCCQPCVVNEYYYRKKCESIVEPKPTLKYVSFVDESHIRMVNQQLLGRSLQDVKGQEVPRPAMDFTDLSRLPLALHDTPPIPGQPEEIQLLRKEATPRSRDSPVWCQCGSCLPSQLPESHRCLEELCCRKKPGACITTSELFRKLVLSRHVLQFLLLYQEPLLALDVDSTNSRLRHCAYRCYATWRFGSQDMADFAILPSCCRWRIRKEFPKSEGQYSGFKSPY

[2] = target: T1, human recombinant P2X7 receptors; assay: Ethidium Accumulation Assay 2 (HEK293 cells, ATP-induced ethidium uptake); assay type: cell-based; conditions: HEK293 cells expressing human P2X7; sometimes mean of more than one measurement; read-out: Assay 2 (antagonist pIC50 for blocking ATP responses) (converted)
Description: Eithidium Accumulation Assay 2
Human Embryonic Kidney (HEK) 293 cells, stably expressing human recombinant P2X7 receptors, were grown in poly-D-lysine pretreated 96 well plates for 24 hours at 37° C.
The cells were washed with assay buffer (100 μL), before addition of 25 μL of assay buffer and then 25 ul of assay buffer containing the putative P2X7 receptor antagonist compound. The cells were then incubated at room temperature (19-21° C.) for 30 min before addition of ATP solution (50 μM). […] Antagonist pIC50 values for blocking ATP responses were determined using iterative curve fitting techniques.

| SMILES | IC50 [1] [nM] | IC50 [2] [nM] |
| --- | --- | --- |
| O=C(c1cccc(C(F)(F)F)c1Cl)N1CCn2cnnc2C1 [Example 3, 7-{[2-chloro-3-(trifluoromethyl)phenyl]carbonyl}-5,6,7,8-tetrahydro[1,2,4]triazolo [4,3-a]pyrazine] | < 501 | < 501 |
| O=C(c1ccc(F)c(Cl)c1Cl)N1CCn2c(nnc2-c2ccc(F)cn2)C1 [Example 114, 7-[(2,3-Dichloro-4-fluorophenyl)carbonyl]-3-(5-fluoro-2-pyridinyl)-5,6,7,8-tetrahydro[1,2,4]triazolo[4,3-a]pyrazine] | < 10 | < 10 |
| CCc1nnc2n1CCN(C(=O)c1cccc(C(F)(F)F)c1Cl)C2 [Example 4, 7-{[2-chloro-3-(trifluoromethyl)phenyl]carbonyl}-3-ethyl-5,6,7,8-tetrahydro[1,2,4]triazolo [4,3-a]pyrazine] | < 100 | < 100 |
| Cc1c(C(=O)N2CCn3c(nnc3-c3ccc(F)cn3)C2)ccc(F)c1F [Example 155, 7-[(3,4-difluoro-2-methylphenyl)carbonyl]-3-(5-fluoro-2-pyridinyl)-5,6,7,8-tetrahydro[1,2,4]triazolo[4,3-a]pyrazine] |  | < 100 |
| O=C(c1ccc(Cl)cc1Cl)N1CCn2c(nnc2-c2ccns2)C1 [Example 158, 7-[(2,4-dichlorophenyl)carbonyl]-3-(5-isothiazolyl)-5,6,7,8-tetrahydro[1,2,4]triazolo[4,3-a]pyrazine] |  | < 100 |
| O=C(c1ccc(Cl)cc1Cl)N1CCn2c(nnc2-c2ccno2)C1 [Example 157, 7-[(2,4-dichlorophenyl)carbonyl]-3-(5-isoxazolyl)-5,6,7,8-tetrahydro[1,2,4]triazolo[4,3-a]pyrazine] |  | < 501 |
| O=C(c1cccc(C(F)(F)F)c1Cl)N1CCn2c(nnc2-c2ccc(F)cn2)C1 [Example 45, 7-{[2-chloro-3-(trifluoromethyl)phenyl]carbonyl}-3-(5-fluoro-2-pyridinyl)-5,6,7,8-tetrahydro[1,2,4]triazolo[4,3-a]pyrazine] | < 10 | < 10 |
| O=C(c1ccc(F)cc1Cl)N1CCn2c(nnc2-c2cccc(Cl)c2)C1 [Example 126, 7-[(2-chloro-4-fluorophenyl)carbonyl]-3-(3-chlorophenyl)-5,6,7,8-tetrahydro[1,2,4]triazolo[4,3-a]pyrazine] | < 100 | < 100 |
| O=C(c1cccc(C(F)(F)F)c1Cl)N1CCn2c(nnc2-c2ncns2)C1 [Example 164, 7-{[2-chloro-3-(trifluoromethyl)phenyl]carbonyl}-3-(1,2,4-thiadiazol-5-yl)-5,6,7,8-tetrahydro[1,2,4]triazolo[4,3-a]pyrazine] |  | < 10 |
| O=C(c1cccc(C(F)(F)F)c1Cl)N1CCn2c(nnc2-c2cccnn2)C1 [Example 44, 7-{[2-chloro-3-(trifluoromethyl)phenyl]carbonyl}-3-(3-pyridazinyl)-5,6,7,8-tetrahydro[1,2,4]triazolo [4,3-a]pyrazine] | < 100 | < 100 |
| Cc1scnc1-c1nnc2n1CCN(C(=O)c1ccc(Cl)cc1Cl)C2 [Example 206, 7-[(2,4-dichlorophenyl)carbonyl]-3-(5-methyl-1,3-thiazol-4-yl)-5,6,7,8-tetrahydro[1,2,4]triazolo[4,3-a]pyrazine] |  | < 100 |
| Cc1nnc2n1CCN(C(=O)c1cccc(C(F)(F)F)c1Cl)C2 [Example 15, 7-{[2-Chloro-3-(trifluoromethyl)phenyl]carbonyl}-3-methyl-5,6,7,8-tetrahydro[1,2,4]triazolo[4,3-a]pyrazine] | < 100 | < 501 |
| Cc1c(Cl)ccc(C(=O)N2CCn3c(nnc3-c3cnccn3)C2)c1Cl [Example 154, 7-[(2,4-dichloro-3-methylphenyl)carbonyl]-3-(2-pyrazinyl)-5,6,7,8-tetrahydro[1,2,4]triazolo[4,3-a]pyrazine] |  | < 10 |
| Cc1c(C(=O)N2CCn3c(nnc3-c3cnccn3)C2)ccc(F)c1F [Example 151, 7-[(3,4-difluoro-2-methylphenyl)carbonyl]-3-(2-pyrazinyl)-5,6,7,8-tetrahydro[1,2,4]triazolo[4,3-a]pyrazine] |  | < 10 |

Results, then the compound that gave them:

| IC50 [1] [nM] | IC50 [2] [nM] | SMILES |
| --- | --- | --- |
|  | < 100 | Cc1csnc1-c1nnc2n1CCN(C(=O)c1ccc(Cl)c(F)c1Cl)C2 [Example 203, 7-[(2,4-dichloro-3-fluorophenyl)carbonyl]-3-(4-methyl-3-isothiazolyl)-5,6,7,8-tetrahydro[1,2,4]triazolo[4,3-a]pyrazine] |
|  | < 10 | O=C(c1ccc(Cl)c(F)c1Cl)N1CCn2c(nnc2-c2ncccc2F)C1 [Example 170, 7-[(2,4-dichloro-3-fluorophenyl)carbonyl]-3-(3-fluoro-2-pyridinyl)-5,6,7,8-tetrahydro[1,2,4]triazolo[4,3-a]pyrazine] |
|  | < 10 | O=C(c1ccc(Cl)c(F)c1Cl)N1CCn2c(nnc2-c2ncns2)C1 [Example 186, 7-[(2,4-Dichloro-3-fluorophenyl)carbonyl]-3-(1,2,4-thiadiazol-5-yl)-5,6,7,8-tetrahydro[1,2,4]triazolo[4,3-a]pyrazine] |
|  | < 10 | O=C(c1ccc(Cl)c(F)c1Cl)N1CCn2c(nnc2-c2cscn2)C1 [Example 149, 7-[(2,4-dichloro-3-fluorophenyl)carbonyl]-3-(1,3-thiazol-4-yl)-5,6,7,8-tetrahydro[1,2,4]triazolo[4,3-a]pyrazine] |
| < 10 | < 10 | O=C(c1ccc(Cl)c(F)c1Cl)N1CCn2c(nnc2-c2cnccn2)C1 [Example 111, 7-[(2,4-Dichloro-3-fluorophenyl)carbonyl]-3-(2-pyrazinyl)-5,6,7,8-tetrahydro[1,2,4]triazolo[4,3-a]pyrazine] |
|  | < 10 | [2H]c1ccc(-c2nnc3n2CCN(C(=O)c2ccc(Cl)c(F)c2Cl)C3)nc1 [Example 183, 7-[(2,4-Dichloro-3-fluorophenyl)carbonyl]-3-(2-pyridinyl)-5,6,7,8-tetrahydro[1,2,4]triazolo[4,3-a]pyrazine-d1] |
|  | < 100 | O=C(c1ccc(Cl)c(F)c1Cl)N1CCn2c(nnc2-c2ncccc2O)C1 [Example 175, 2-{7-[(2,4-dichloro-3-fluorophenyl)carbonyl]-5,6,7,8-tetrahydro[1,2,4]triazolo[4,3-a]pyrazin-3-yl}-3-pyridinol] |
|  | < 100 | O=C(c1ccc(Cl)c(F)c1Cl)N1CCn2c(nnc2-c2csnn2)C1 [Example 189, 7-[(2,4-Dichloro-3-fluorophenyl)carbonyl]-3-(1,2,3-thiadiazol-4-yl)-5,6,7,8-tetrahydro[1,2,4]triazolo[4,3-a]pyrazine] |
|  | < 10 | O=C(c1ccc(Cl)c(F)c1Cl)N1CCn2c(nnc2-c2nccs2)C1 [Example 187, 7-[(2,4-Dichloro-3-fluorophenyl)carbonyl]-3-(1,3-thiazol-2-yl)-5,6,7,8-tetrahydro[1,2,4]triazolo[4,3-a]pyrazine] |
|  | < 100 | COc1cccc(-c2nnc3n2CCN(C(=O)c2ccc(Cl)c(F)c2Cl)C3)n1 [Example 176, 7-[(2,4-dichloro-3-fluorophenyl)carbonyl]-3-[6-(methyloxy)-2-pyridinyl]-5,6,7,8-tetrahydro[1,2,4]triazolo[4,3-a]pyrazine] |
